According to patent US20240237526A1, “ORGANIC COMPOUND, LIGHT-EMITTING DEVICE, LIGHT-EMITTING APPARATUS, AND ELECTRONIC DEVICE” (SEMICONDUCTOR ENERGY LABORATORY CO., LTD., priority 2022, published 2024):

Assay: solubility test in water by visual inspection
Type: physicochemical
Settings: room temperature (RT), one atmosphere, ultrasonic irradiation
Method: In this example, the solubility of the organic compound that can be used in the display apparatus of one embodiment of the present invention is described. Note that the solubility test was conducted at a pressure of one atmosphere at room temperature (RT).
(§1) Into a 110 mL sample bottle, 1.22 mg of 2tiiSF was put and 10 mL of water was added thereto. This mixture was irradiated with ultrasonic waves for one minute. A precipitated white powder was found by visual inspection for an insoluble residue. After further addition of 10 mL of water and one-minute ultrasonic wave irradiation, a precipitated white powder was found by visual inspection. This procedure was repeated until the dissolution was confirmed by visual inspection.
The precipitated white powder was found until the total amount of water reached 100 mL.
as §1, with “1.08” for “1.22”, “2hppSF” for “2tiiSF”
The precipitated white powder was found until the total amount of water reached 50 mL. […]

c1ccc2c(c1)-c1ccccc1C21c2ccccc2-c2ccc(N3CCN4CCN=C43)cc21 [2tiiSF, 1-(9,9′-spirobi[9H-fluoren]-2-yl)-2,3,5,6-tetrahydro-1H-imidazo[1,2-a]imidazole]
weight which can be dissolved in 1.0 mL of water: less than 0.012 mg
